Where a name gives a salt, the structure may show the parent alone.
Experiments:
KB Tumor Xenograft = experiment: HSPC vs DSPC liposomal GI147211 repeat-dose study, KB xenograft; assay type: in vivo, nude mice; conditions: 14 mg/kg iv, two drug doses
From the text: On a day 1 and day 8 dose schedule and after two weeks rest the same cycle of therapy was repeated with doses delivered on day 23 and day 30.

U87-MG (Astrocytoma) = experiment: 3H-thymidine incorporation cytotoxicity assay, U87-MG; assay type: cell-based, human; conditions: Homo sapiens, U-87 MG, 42 h, read-out: Median IC50
Protocol: (§1) In vitro efficacy screening has been performed using GI147211 and liposomal formulations of GI147211. […] Standard tumor cell-based cytototoxicity assays assessing ^3H-thymidine incorporation were performed.
(§2) Tumor cells were seeded into 96-well tissue culture plates (1×10^4 cells/well)≡4 h prior to experimentation. […] Positive and negative (Tris treated) control groups were included on each assay plate. Tumor cells were then labeled with 0.25 μCi of [methyl-^3H] thymidine and incubated for 42 h under tissue culture conditions (37° C., 5% CO2, 100% relative humidity), except for C6, U251, A673 and B16-F1 cells which were incubated for 24 h. Cells were then lysed, harvested onto glass-fiber filters and unincorporated [methyl-^3H] thymidine removed by filter washing. Filters were processed for scintillation counting and cpm-^3H/well determined. […] Data are presented from multiple sets of experimentation, involving multiple liposomal formulations of GI147211.

[1] = system: KB (oralpharyngial carcinoma); experiment: 3H-thymidine incorporation cytotoxicity assay, KB; assay type: cell-based, human; conditions: Homo sapiens, 42 h, read-out: Median IC50
Protocol: as §1, §2

A673 (Rhabdomyosarcoma) = experiment: 3H-thymidine incorporation cytotoxicity assay, A673; assay type: cell-based, human; conditions: Homo sapiens, A673, 24 h; read-out: Median IC50
Protocol: as §1, §2

ES2 Tumor Xenograft = experiment: Repeat dose efficacy at equal toxic doses, ES2 xenograft; conditions: ES2, 14 mg/kg, days 1, 8 and 15
Protocol: In all the studies performed, subcutaneous tumors implanted on the anterior flank of nude mice were allowed to grow to an established size of 200+/−50 mm^3 prior to dosing drugs.
Drugs were dosed on days 1,8 and 15.

A549 (lung carcinoma) = experiment: 3H-thymidine incorporation cytotoxicity assay, A549; assay type: cell-based; conditions: Homo sapiens, A549, 42 h; read-out: Median IC50
Protocol: as §1, §2

[2] = Plasma pharmacokinetics in Sprague-Dawley rats after IV dose; conditions: rat, in vivo
Protocol: The pharmacokinetics were then compared for free drug and membrane entrapped GI147211 liposomes dosed at 5 mg/kg in Sprague Dawley rats. Rats were dosed at 1 mg/kg to compare free GI147211 to passive and actively loaded liposomes.
Pharmacokinetic studies were carried out on various liposomal formulations of GI147211 in rats and mice by IV bolus administration. Plasma samples were precipitated with acetonitrile and the supematant for each sample was analyzed by reverse phase HPLC using isocratic elution and monitoring fluorescence. […] Concentration values were determined for unknown samples and quality control samples based on interpolation using a linear fit of the standard samples. In each study the average plasma concentration at each time point was calculated and utilized in the pharmacokinetic analysis. Noncompartmental analysis were carried out using WinNonlin™ (Standard Edition, version 1.5 ©, Scientific Consulting, Inc.) and the following parameters were calculated: the maximum concentration extrapolated at zero time (Cmax), the area under the curve from zero to infinite time (AUC total), the terminal phase half life (t½), the clearance rate (C1), and the volume of distribution at steady state (Vss).

[3] = Precipitation of GI147211 with counterion excipients (HPLC of supernatant); assay type: physicochemical
Protocol: The excipients include, but are not limited to, the acid, sodium or ammonium forms of monovalent anions such as chloride, acetate, lactobionate and formnate; divalent anions such as succinate, aspartate and sulfate; and trivalent ions such as citrate and phosphate. To assess the relative degree of precipitation brought about with each excipient, 5 mg/ml solutions of GI147211 were prepared at low pH (2±0.5) and different counterions were added. The solutions of GI147211 and counterion were allowed to stand for 15 to 20 minutes, then centrifuiged at 3600 rpm for 10 minutes to isolate the precipitate. The quantity of GI147211 remaining in solution for each sample was then assessed by assaying the supernatants using HPLC with the following conditions: C18 ODS Hypersil column from Keystone, mobile phase of 30/70 (v/v) acetonitrile/0.1% acetic acid +0.1% aqueous triethylamine buffer, pH 3.30 with LTV detection at 270 nm. The amount of GI147211 precipitated was also tabulated by the taking the difference of the concentration of the remaining soluble fraction from Smg/ml, the original GI1147211 concentration in solution. Each number is expressed in Table 6 as percentage of the original solution concentration of 5 mg/ml.
To more fully explore the concentration dependence of GI147211 precipitation, 5 mg/ml solutions of the drug were prepared as described in Example 3 and titrated with increasing concentrations of the counterion excipients sulfate, citrate, phosphate and chloride. The solutions of GI147211 and counterion were allowed to stand for 15 to 20 minutes, then centrifuged at 3600 rpm for 10 minutes to isolate the precipitate and the supernatants were assayed as described in Example 3.
In a separate study, precipitation of the camptothecin GI147211 was examined at the predicted concentration in the interior of the liposome (approx. 40 mg/ml camptothecin GI147211) after loading in the presence of 50 mM ammonium sulfate.

LOX (melanoma) = experiment: 3H-thymidine incorporation cytotoxicity assay, LOX; assay type: cell-based, human; conditions: Homo sapiens, 42 h, read-out: Median IC50
Protocol: as §1, §2

tumor cell = tumor cell cytotoxicity assays; cited from earlier work
[4] = 5 mg/ml GI147211, pH 2±0.5, aspartate 50 mM
[5] = 5 mg/ml GI147211, pH 2±0.5, chloride 100 mM
[6] = 5 mg/ml GI147211, pH 2±0.5, citrate 20 mM
[7] = 5 mg/ml GI147211, pH 2±0.5, citrate 50 mM
[8] = 5 mg/ml GI147211, pH 2±0.5, formate 50 mM
[9] = 5 mg/ml GI147211, pH 2±0.5, lactobionate 50 mM
[10] = 5 mg/ml GI147211, pH 2±0.5, phosphate 100 mM
[11] = 5 mg/ml GI147211, pH 2±0.5, succinate 500 mM
[12] = 5 mg/ml GI147211, pH 2±0.5, sucrose 300 mM
[13] = 5 mg/ml GI147211, pH 2±0.5, sulfate 20 mM
[14] = 5 mg/ml GI147211, pH 2±0.5, sulfate 50 mM
[15] = approx. 40 mg/ml GI147211, 50 mM ammonium sulfate

In the case of `CCC1(O)C(=O)OCc2c1cc1n(c2=O)Cc2c-1nc1cc3c(cc1c2CN1CCN(C)CC1)OCCO3` (stereo in doubt) [GI147211, 7-(4-methylpiperazinomethylene)-10,11-ethylenedioxy-20(S)-camptothecin dihydrochloride], the “Cures (tumor-free animals at day 60)” value (KB Tumor Xenograft) is reported as 0/8, the “Log Cell Kill Index” value (KB Tumor Xenograft) is reported as 0.81 and the “T − C (to achieve 400% tumor volume increase)” value (KB Tumor Xenograft) is reported as 13.4. The “Toxic Deaths” value (KB Tumor Xenograft) was 0/8, the “% TGI” value (KB Tumor Xenograft; day 18) was 77.5% and the IC50 (U87-MG (Astrocytoma)) was 2.36 ng/mL. For the same compound, the IC50 [1] was 4.31 ng/mL, the IC50 (A673 (Rhabdomyosarcoma)) was 0.58 ng/mL and the Cures (ES2 Tumor Xenograft) was 1. For the same compound, the “Log Cell Kill” value (ES2 Tumor Xenograft) was 2.14, the “Maximum Body Weight loss” value (ES2 Tumor Xenograft) was 9% and the “T − C (to reach 400% tumor volume increase)” value (ES2 Tumor Xenograft) was 27 days. For the same compound, the “Toxic Deaths” value (ES2 Tumor Xenograft) was 3, the IC50 (A549 (lung carcinoma)) was 6.94 ng/mL and the AUC ([2]; 1 mg/kg) was 136 ng·h/mL. The Cmax ([2]; 1 mg/kg) was 100 ng/mL, the Vd ([2]; 1 mg/kg) was 9.23 L/kg and the clearance ([2]; 1 mg/kg) was 123 mL/min/kg. The half-life ([2]; 1 mg/kg) was 1.17 h, the AUC ([2]; 5 mg/kg) was 640 ng·h/mL and the Cmax ([2]; 5 mg/kg) was 690 ng/mL. For the same compound, the clearance ([2]; 5 mg/kg) was 132 mL/min/kg, the half-life ([2]; 5 mg/kg) was 2.45 h and the “% GI147211 Precipitated” value [3, 4] was 57.8%. For the same compound, the “% GI147211 Remaining in Solution” value [3, 4] was 42.2%, the “% GI147211 Precipitated” value [3, 5] was 85.2% and the “% GI147211 Remaining in Solution” value [3, 5] was 14.8%. For the same compound, the “% GI147211 Precipitated” value [3, 6] was 98.8%, the “% GI147211 Remaining in Solution” value [3, 6] was 1.2% and the “% GI147211 Precipitated” value [3, 7] was 99.1%. For the same compound, the “% GI147211 Remaining in Solution” value [3, 7] was 0.9%, the “% GI147211 Precipitated” value [3, 8] was 64.7% and the “% GI147211 Remaining in Solution” value [3, 8] was 35.3%. For the same compound, the “% GI147211 Precipitated” value [3, 9] was 6.2%, the “% GI147211 Remaining in Solution” value [3, 9] was 93.8% and the “% GI147211 Precipitated” value [3, 10] was 82.3%. For the same compound, the “% GI147211 Remaining in Solution” value [3, 10] was 17.7%, the “% GI147211 Precipitated” value [3, 11] was 98.8% and the “% GI147211 Remaining in Solution” value [3, 11] was 1.2%. For the same compound, the “% GI147211 Precipitated” value [3, 12] was 8.2%, the “% GI147211 Remaining in Solution” value [3, 12] was 91.8% and the “% GI147211 Precipitated” value [3, 13] was 97.9%. The “% GI147211 Remaining in Solution” value [3, 13] was 2.1%, the “% GI147211 Precipitated” value [3, 14] was 98.1% and the “% GI147211 Remaining in Solution” value [3, 14] was 1.9%. The drug precipitated [3, 15] was ~99%, the remained in solution [3, 15] was 0.5% and the drug precipitated ([3]; chloride and phosphate) was “greater than 82%”. For the same compound, the drug precipitated ([3]; formate and aspartate) was “greater than 55%”, the drug precipitated ([3]; sucrose and lactobionate) was “less than 10%” and the drug precipitated ([3]; sulfate, citrate, and succinate) was “greater than 97%”. For the same compound, the IC50 (LOX (melanoma)) was 1.41 ng/mL and the “potency relative to topotecan” value (tumor cell) was 5-10 times.

Source: US6740335B1, “Liposomal camptothecin formulations” (priority 1997, dated 2004)
